According to PMC2248166, “Quantitative peptide binding motifs for 19 human and mouse MHC class I molecules derived using positional scanning combinatorial peptide libraries” (Immunome Research, 2008):

Assays:
HLA B*5401 = HLA B*5401 (Homo sapiens, UniProt P01889, A329T/C349S/D138N/D201E/E176V/E187T/E204Q/E69G/I76V/K202T/L119W/R155S/R180L/S121T/S35A/S48A/V127L/V306I/V36M/Y140L); format: binding
H-2 K^k = H-2 K^k (Mus musculus, UniProt P04223); format: binding
HLA B*5802 = HLA B*5802 (Homo sapiens, UniProt P01889, A329T/C349S/D201E/D98Y/E176V/E187L/E204Q/E69T/G107R/I218V/I90N/K202T/L105A/N104I/N87E/Q89R/Q94S/R106L/R155S/R180L/R86G/S101N/S121W/S35A/S48A/V127L/V306I/V36M/Y140S/Y91M); format: binding
HLA A*6802 = HLA A*6802 (Homo sapiens, UniProt P04439, A269V/D140Y/D185E/E176V/E277Q/E87N/F33Y/G231S/I121R/I166T/I218V/L180W/L300P/L318F/N151K/P208A/P217A/Q86R/R138H/R169H/S129P/T345S/V36M); format: binding
H-2 D^b = H-2 D^b (Mus musculus, UniProt P01899); format: binding
HLA A*3201 = HLA A*3201 (Homo sapiens, UniProt P04439, A270S/D101S/D185E/E176V/E277Q/F133L/G103R/G107R/G231S/H175R/I121M/I218V/I322F/K168Q/L105A/L300P/L318F/M331R/P208A/P217A/Q94H/R106L/R138Q/S129P/T104I/T323A/T345S/V100E/V321M/V358M); assay: biochemical; format: binding
HLA A*3001 = HLA A*3001 (Homo sapiens, UniProt P04439, D140H/D185E/E176W/F33S/G80R/H175R/K168Q/R138E/R41S); assay: biochemical; format: binding
HLA B*5301 = HLA B*5301 (Homo sapiens, UniProt P01889, A329T/A93T/A95T/C349S/D201E/D98Y/E176V/E187L/E204Q/E69T/G107R/I218V/K202T/L105A/L119I/N104I/Q94N/R106L/R155S/R180L/S101N/S121R/S35A/S48A/T118I/V127L/V306I/V36M/Y140S/Y91F); format: binding
HLA B*2705 = HLA B*2705 (Homo sapiens, UniProt P01889, D138H/D201E/E176V/E204Q/G107R/H137Y/K202T/N104T/N87E/Q56L/Q94K/R106L/R155S/R180L/S101D/S121N/S48T/Y140D/Y33H/Y91C); format: binding; conditions: positional scanning combinatorial 9-mer library; normalized to 1.0 for the best residue at each position
HLA B*3501 = HLA B*3501 (Homo sapiens, UniProt P01889, A329T/A93T/A95T/C349S/D201E/D98Y/E176V/E187L/E204Q/E69T/I218V/K202T/L119I/Q94N/R155S/R180L/S121R/S35A/S48A/T118I/V127L/V306I/V36M/Y140S/Y91F); format: binding
HLA B*5101 = HLA B*5101 (Homo sapiens, UniProt P01889, A329T/A93T/A95T/C349S/D138N/D201E/D98Y/E187L/E204Q/E69T/G107R/I218V/K202T/L105A/L119W/N104I/Q94N/R106L/R155S/R180L/S101N/S121T/S35A/S48A/V306I/V36M/Y195H/Y91F); format: binding
HLA B*1503 = HLA B*1503 (Homo sapiens, UniProt P01889, A329T/A93T/A95T/C349S/D201E/D98Y/E187L/E204Q/K202T/N87E/Q94N/R155S/R180L/S121R/S35A/V306I/V36M/Y140S/Y91S); assay: biochemical; format: binding
H-2 D^d = H-2 D^d (Mus musculus, UniProt P01900); format: binding
HLA B*5801 = HLA B*5801 (Homo sapiens, UniProt P01889, A329T/C349S/D201E/D98Y/E176V/E187L/E204Q/E69T/G107R/I218V/I90N/K202T/L105A/L119I/N104I/N87E/Q89R/Q94S/R106L/R155S/R180L/R86G/S101N/S121R/S35A/S48A/T118I/V127L/V306I/V36M/Y140S/Y91M); format: binding
HLA B*0702 = HLA B*0702 (Homo sapiens, UniProt P01889); format: binding; conditions: positional scanning combinatorial 9-mer library; normalized to 1.0 for the best residue at each position
HLA B*0801 = HLA B*0801 (Homo sapiens, UniProt P01889, A93T/A95T/D138N/E176V/E187T/K202T/Q94N/R180D/S35A/V36M/Y33D/Y91F); assay: biochemical; format: binding
HLA B*1501 = HLA B*1501 (Homo sapiens, UniProt P01889, A329T/A93T/A95T/C349S/D201E/D98Y/E187L/E204Q/E69M/E70A/K202T/N87E/Q94N/R155S/R180W/S121R/S35A/S48A/V306I/V36M/Y140S/Y91S); assay: biochemical; format: binding
HLA A*0201 = HLA A*0201 (Homo sapiens, UniProt P04439, D140Y/D185E/D98H/E176V/E277Q/G131W/G231S/I119V/I121R/I166T/I218V/L300P/L318F/N151K/N90K/P208A/P217A/Q86G/Q94H/R138H/R169H/T345S); conditions: positional scanning combinatorial 9-mer library; normalized to 1.0 for the best residue at each position

Chain of H-2 D^d (P01900 whole entry, looked up): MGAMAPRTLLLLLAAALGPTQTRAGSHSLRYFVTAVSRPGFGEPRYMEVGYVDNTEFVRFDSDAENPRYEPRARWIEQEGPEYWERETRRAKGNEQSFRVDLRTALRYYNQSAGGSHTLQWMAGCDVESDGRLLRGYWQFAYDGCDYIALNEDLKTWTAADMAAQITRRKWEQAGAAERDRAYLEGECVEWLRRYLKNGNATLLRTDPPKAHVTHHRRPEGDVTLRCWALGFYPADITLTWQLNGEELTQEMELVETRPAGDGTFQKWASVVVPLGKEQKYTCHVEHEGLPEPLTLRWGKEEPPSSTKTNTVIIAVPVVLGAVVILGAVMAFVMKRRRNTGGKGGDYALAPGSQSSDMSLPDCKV
Chain of H-2 K^k (P01887 21-119): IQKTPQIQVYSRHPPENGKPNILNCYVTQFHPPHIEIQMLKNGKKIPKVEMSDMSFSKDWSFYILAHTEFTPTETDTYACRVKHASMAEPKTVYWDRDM
Chain of H-2 K^k (P04223 22-369): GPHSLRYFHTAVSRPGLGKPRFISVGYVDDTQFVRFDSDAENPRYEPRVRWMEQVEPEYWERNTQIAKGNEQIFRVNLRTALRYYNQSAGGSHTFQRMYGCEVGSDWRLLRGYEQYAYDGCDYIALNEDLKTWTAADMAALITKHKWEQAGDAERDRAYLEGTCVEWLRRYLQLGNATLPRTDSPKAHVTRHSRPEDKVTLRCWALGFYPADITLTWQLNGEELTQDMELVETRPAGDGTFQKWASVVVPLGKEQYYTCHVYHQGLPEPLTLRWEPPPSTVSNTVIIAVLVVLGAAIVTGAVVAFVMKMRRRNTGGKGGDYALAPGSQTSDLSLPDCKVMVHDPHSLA
Chain of H-2 D^b (P01887 21-119): as the sequence (P01887 21-119) above
Chain of H-2 D^b (P01899 25-362): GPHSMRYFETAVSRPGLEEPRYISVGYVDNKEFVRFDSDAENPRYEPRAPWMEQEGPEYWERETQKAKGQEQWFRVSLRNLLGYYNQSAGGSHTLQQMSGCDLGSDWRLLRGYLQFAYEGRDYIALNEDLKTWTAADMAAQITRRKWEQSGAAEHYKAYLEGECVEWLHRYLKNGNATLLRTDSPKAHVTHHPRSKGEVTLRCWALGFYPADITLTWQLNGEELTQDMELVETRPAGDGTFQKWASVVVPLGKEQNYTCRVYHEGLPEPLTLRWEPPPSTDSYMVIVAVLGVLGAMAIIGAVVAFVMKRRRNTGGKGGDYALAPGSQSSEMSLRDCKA

Sequence	Normalized average relative binding affinity (ARB), HLA B*5401 (HLA B*5401)	Normalized average relative binding affinity (ARB), H-2 Kk (H-2 K^k)	Normalized average relative binding affinity (ARB), HLA B*5802 (HLA B*5802)	Normalized average relative binding affinity (ARB), HLA A*6802 (HLA A*6802)	Normalized average relative binding affinity (ARB), H-2 Db (H-2 D^b)	Normalized average relative binding affinity (ARB), HLA A*3201 (HLA A*3201)	Normalized average relative binding affinity (ARB), HLA A*3001 (HLA A*3001)	Normalized average relative binding affinity (ARB), HLA B*5301 (HLA B*5301)	Normalized average relative binding affinity (ARB), HLA B*2705 (HLA B*2705)	Normalized average relative binding affinity (ARB), HLA B*3501 (HLA B*3501)	Normalized average relative binding affinity (ARB), HLA B*5101 (HLA B*5101)	Normalized average relative binding affinity (ARB), HLA B*1503 (HLA B*1503)	Normalized average relative binding affinity (ARB), H-2 Dd (H-2 D^d)	Normalized average relative binding affinity (ARB), HLA B*5801 (HLA B*5801)	Normalized average relative binding affinity (ARB), HLA B*0702 (HLA B*0702)	Normalized average relative binding affinity (ARB), HLA B*0801 (HLA B*0801)	Normalized average relative binding affinity (ARB), HLA B*1501 (HLA B*1501)	Normalized average relative binding affinity (ARB), HLA A*0201 (HLA A*0201)
PXXXXXXXX [3064.0013]	0.0097	0.052	0.059	0.0050	0.030	0.055	0.0059	0.0038	0.022	0.023	0.037	0.018	0.095	0.030	0.029	0.012	0.059	0.0032
QXXXXXXXX [3064.0014]	0.031	0.45	0.033	0.039	0.060	0.23	0.063	0.021	0.067	0.081	0.037	0.074	0.39	0.17	0.065	0.048	0.25	0.019
RXXXXXXXX [3064.0015]	0.027	0.11	0.52	0.044	0.12	0.97	1.0	0.020	1.0	0.045	0.028	0.56	0.41	0.79	1.0	0.19	0.67	0.084
SXXXXXXXX [3064.0016]	0.056	0.54	0.097	0.41	0.12	0.39	0.32	0.055	0.19	0.10	0.051	0.50	0.24	0.16	0.35	1.0	0.42	0.10
